Here are results for eight compounds from patent publication US20250388544A1, “HETEROAROMATIC INHIBITORS OF ASTACIN PROTEINASES” (VIVORYON THERAPEUTICS N.V., priority 2019, published 2025).

Common to all, as to assay type: biochemical
One assay deals with T1, hADAM 10 (Homo sapiens, UniProt O14672).
T1 construct: purchased R&D systems
T1 sequence (O14672 214-748): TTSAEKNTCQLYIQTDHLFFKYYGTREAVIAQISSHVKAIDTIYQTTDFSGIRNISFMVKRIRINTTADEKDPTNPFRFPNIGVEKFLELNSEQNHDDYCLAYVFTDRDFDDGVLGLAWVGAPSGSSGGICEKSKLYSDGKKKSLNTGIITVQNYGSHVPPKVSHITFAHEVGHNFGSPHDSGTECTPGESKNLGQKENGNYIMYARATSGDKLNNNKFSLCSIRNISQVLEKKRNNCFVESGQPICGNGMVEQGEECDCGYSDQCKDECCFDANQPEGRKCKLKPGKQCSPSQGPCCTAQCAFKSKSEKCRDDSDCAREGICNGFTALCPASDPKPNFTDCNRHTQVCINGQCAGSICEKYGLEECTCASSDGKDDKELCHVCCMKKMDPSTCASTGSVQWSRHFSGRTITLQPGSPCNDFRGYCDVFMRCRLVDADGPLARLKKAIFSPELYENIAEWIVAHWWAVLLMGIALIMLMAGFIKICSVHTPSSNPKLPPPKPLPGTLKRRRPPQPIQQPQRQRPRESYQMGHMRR
Nature of the assay: Residual enzyme activity of other metalloproteases. The settings on record: read-out: Residual enzyme activity ADAM10; for remaining activity at 10 µM: 10 μM inhibitor; for remaining activity at 200 µM: 200 μM inhibitor. On the procedure: (§1) The determination of enzymatic activity was based on the cleavage of internally quenched peptide substrates. A typical assay of 250 μl total volume measured in black 96 well plates consisted of 100 μl buffer, 50 μl enzyme at a final concentration of 5e-8 M to 2e-10 M, 50 μl substrate (0.15 to 80 μM, in buffer, 0.5% DMSO) and 50 μl inhibitor solution (in buffer, 1% DMSO). In case of 125 μl assay volume (black 96 half area well plates) all volumes were cut in half. Enzymatic activity of ADAMs was measured in 384 well plates with 60 μl total assay volume consisting of 20 μl inhibitor, 20 μl buffer, 10 μl enzyme and 10 μl substrate.

Another assay concerns the target T2, hADAM 17 (Homo sapiens, UniProt P78536).
T2 construct: purchased R&D systems
In words: Residual enzyme activity of other metalloproteases. The settings on record: read-out: Residual enzyme activity ADAM17; for remaining activity at 10 µM: 10 μM inhibitor; for remaining activity at 200 µM: 200 μM inhibitor. How it is done:
as §1

The target of a further assay is T3, hMMP 9 (Homo sapiens, UniProt P14780).
T3 construct: purchased R&D systems
T3 sequence (P14780 107-707 limits assumed): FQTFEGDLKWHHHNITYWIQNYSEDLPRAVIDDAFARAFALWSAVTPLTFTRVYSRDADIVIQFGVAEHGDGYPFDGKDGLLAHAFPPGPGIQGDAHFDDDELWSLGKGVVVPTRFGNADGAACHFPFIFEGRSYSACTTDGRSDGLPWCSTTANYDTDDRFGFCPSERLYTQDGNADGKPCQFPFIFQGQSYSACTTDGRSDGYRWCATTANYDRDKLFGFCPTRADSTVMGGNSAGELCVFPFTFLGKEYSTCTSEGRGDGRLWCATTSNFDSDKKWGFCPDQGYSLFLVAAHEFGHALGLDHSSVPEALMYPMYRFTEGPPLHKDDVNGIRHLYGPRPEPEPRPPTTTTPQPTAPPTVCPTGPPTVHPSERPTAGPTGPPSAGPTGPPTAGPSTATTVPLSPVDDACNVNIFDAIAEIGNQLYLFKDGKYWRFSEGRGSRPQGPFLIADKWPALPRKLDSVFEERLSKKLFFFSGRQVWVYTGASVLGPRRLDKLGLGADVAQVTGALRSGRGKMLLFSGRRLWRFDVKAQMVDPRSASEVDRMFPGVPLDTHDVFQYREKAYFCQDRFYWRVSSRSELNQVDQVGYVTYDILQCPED
In words: Residual enzyme activity of other metalloproteases. The note with it: read-out: Residual enzyme activity MMP9; for remaining activity at 10 µM: 10 μM inhibitor; for remaining activity at 200 µM: 200 μM inhibitor. On the procedure: as §1
(§2) MMPs were activated prior to measurement by APMA (p-aminophenylmercuric acetate) treatment according to manufacturer's instructions (R&D systems).

Another assay addresses T4, hMeprin β (Homo sapiens, UniProt Q16820).
T4 sequence (Q16820 62-701): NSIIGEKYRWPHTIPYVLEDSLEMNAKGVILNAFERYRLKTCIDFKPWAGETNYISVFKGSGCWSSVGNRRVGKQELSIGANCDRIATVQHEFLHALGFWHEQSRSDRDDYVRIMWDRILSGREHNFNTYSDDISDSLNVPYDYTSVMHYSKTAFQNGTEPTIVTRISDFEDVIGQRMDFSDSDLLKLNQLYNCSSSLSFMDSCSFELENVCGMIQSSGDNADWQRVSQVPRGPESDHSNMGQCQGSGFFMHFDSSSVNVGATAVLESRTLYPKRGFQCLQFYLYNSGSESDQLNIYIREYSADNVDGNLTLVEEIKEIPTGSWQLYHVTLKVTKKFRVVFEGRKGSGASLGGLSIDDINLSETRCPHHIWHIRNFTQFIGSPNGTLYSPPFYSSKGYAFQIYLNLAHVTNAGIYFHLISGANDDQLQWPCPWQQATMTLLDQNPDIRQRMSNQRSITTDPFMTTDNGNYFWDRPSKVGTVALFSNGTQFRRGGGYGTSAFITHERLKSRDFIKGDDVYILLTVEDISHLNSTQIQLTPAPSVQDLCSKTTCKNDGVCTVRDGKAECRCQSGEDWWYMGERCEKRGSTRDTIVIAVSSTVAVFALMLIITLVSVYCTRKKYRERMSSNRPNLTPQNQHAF
In words: Enzymatic assay, quenched peptide substrate cleavage, method B. The note with it: geometric mean (geometric SD factor in parentheses); for IC50: read-out: Meprin beta IC50; for Ki: Morrison's equation, read-out: Meprin beta Ki(app). The method, boiled down: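 Cleavage of internally quenched peptides was read at 340/420 nm and 30° C., with enzyme at 5e-8 to 2e-10 M and substrate at 0.15–80 μM. Inhibitor solutions contained 1% DMSO and substrate 0.5% DMSO. Method B gave Ki(app) values via Morrison's equation, with kinetics measured in at least duplicate on separate days.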

The next assay addresses T5, hMMP 13 (Homo sapiens, UniProt P45452).
T5 construct: purchased R&D systems
In words: Residual enzyme activity of other metalloproteases. The settings on record: read-out: Residual enzyme activity MMP13; for remaining activity at 10 µM: 10 μM inhibitor; for remaining activity at 200 µM: 200 μM inhibitor. How it is done:
(§3) A typical assay of 250 μl total volume measured in black 96 well plates consisted of 100 μl buffer, 50 μl enzyme at a final concentration of 5e-8 M to 2e-10 M, 50 μl substrate (0.15 to 80 μM, in buffer, 0.5% DMSO) and 50 μl inhibitor solution (in buffer, 1% DMSO). In case of 125 μl assay volume (black 96 half area well plates) all volumes were cut in half. Enzymatic activity of ADAMs was measured in 384 well plates with 60 μl total assay volume consisting of 20 μl inhibitor, 20 μl buffer, 10 μl enzyme and 10 μl substrate.
as §2

Another assay deals with T6, hMMP 2 (Homo sapiens, UniProt P08253).
T6 construct: purchased Abnova
T6 sequence (P08253 110-660): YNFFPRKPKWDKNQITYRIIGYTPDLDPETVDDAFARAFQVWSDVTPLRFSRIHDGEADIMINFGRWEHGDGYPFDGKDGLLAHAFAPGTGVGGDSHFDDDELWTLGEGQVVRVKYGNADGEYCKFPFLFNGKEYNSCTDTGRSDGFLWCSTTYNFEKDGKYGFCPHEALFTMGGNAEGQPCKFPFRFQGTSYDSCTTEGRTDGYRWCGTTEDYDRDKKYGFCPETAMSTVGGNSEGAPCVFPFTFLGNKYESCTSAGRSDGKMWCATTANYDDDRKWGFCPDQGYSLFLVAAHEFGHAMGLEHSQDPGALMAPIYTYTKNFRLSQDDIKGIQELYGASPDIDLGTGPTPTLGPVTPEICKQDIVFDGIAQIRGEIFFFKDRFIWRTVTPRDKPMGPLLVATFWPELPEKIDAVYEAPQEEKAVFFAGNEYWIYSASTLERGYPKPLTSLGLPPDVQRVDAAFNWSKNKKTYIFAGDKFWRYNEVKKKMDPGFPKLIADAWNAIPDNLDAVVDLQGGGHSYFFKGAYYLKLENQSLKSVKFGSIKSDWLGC
Nature of the assay: Residual enzyme activity of other metalloproteases. The note with it: read-out: Residual enzyme activity MMP2; for remaining activity at 10 µM: 10 μM inhibitor; for remaining activity at 200 µM: 200 μM inhibitor. How it is done:
as §3, §2

T2 sequence (P78536 215-824): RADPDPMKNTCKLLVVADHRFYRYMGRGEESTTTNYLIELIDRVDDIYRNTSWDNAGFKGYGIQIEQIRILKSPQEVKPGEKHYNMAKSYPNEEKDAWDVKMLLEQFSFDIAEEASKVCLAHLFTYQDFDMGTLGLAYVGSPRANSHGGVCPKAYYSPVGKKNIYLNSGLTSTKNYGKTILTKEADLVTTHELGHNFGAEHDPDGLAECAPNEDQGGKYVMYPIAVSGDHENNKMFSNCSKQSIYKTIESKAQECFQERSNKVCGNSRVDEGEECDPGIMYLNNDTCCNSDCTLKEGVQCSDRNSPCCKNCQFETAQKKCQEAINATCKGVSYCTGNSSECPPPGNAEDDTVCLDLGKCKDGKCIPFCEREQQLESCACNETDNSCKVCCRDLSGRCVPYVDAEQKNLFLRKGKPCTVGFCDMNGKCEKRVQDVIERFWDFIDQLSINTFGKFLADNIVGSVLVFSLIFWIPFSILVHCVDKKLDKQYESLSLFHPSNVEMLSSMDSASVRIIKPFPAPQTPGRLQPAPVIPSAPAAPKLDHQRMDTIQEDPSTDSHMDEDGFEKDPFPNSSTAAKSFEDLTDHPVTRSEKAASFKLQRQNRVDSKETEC

With `O=C(Cc1c(-c2ccccc2)n[nH]c1-c1ccccc1)NO` [Example 1, 2-(3,5-Diphenyl-1H-pyrazol-4-yl)ethanehydroxamic acid], the remaining activity at 10 µM on hADAM 10 amounted to 73%; at hADAM 17 it was 61%; on hMMP 9, 81%; on hMMP 13, 75%; at hMMP 2 it was 104%. Moreover, the remaining activity at 200 µM on hADAM 10 is 23%; on hADAM 17, 7%; at hMMP 9 it was 27%; on hMMP 13 it was 67%; at hMMP 2 it was 61%. Moreover, at hMeprin β, the IC50 turned out to be 0.119 µM.
For `O=C(Cc1c(-c2ccccc2)noc1-c1ccccc1)NO` [Example 2, 2-(3,5-Diphenylisoxazol-4-yl)ethanehydroxamic acid], the remaining activity at 10 µM at hADAM 10 turned out to be 80%; on hADAM 17, 62%; at hMMP 9, 86%; at hMMP 13 it was 80%; on hMMP 2 it was 87%. Besides, the remaining activity at 200 µM turned out to be 22% on hADAM 10; 9% on hADAM 17; 16% at hMMP 9; 31% at hMMP 13; 34% on hMMP 2. The Ki on hMeprin β was found to be 0.584 µM. For the same compound, the IC50 at hMeprin β is 0.586 µM.
As for `O=C(CCc1c(-c2ccccc2)n[nH]c1-c1ccccc1)NO` [Example 3, 3-(3,5-Diphenyl-1H-pyrazol-4-yl)propanehydroxamic acid], the remaining activity at 10 µM is 66% at hADAM 10; 76% at hADAM 17; 93% at hMMP 9; 93% at hMMP 13; 97% at hMMP 2. The remaining activity at 200 µM on hADAM 10 turned out to be 12%; at hADAM 17 it was 27%; at hMMP 9 it was 65%; on hMMP 13, 68%; at hMMP 2 it was 77%. In addition, the Ki at hMeprin β was determined as 9.35 µM. Further, at hMeprin β, the IC50 came out at 9.66 µM.
Take `O=C(CCc1c(-c2ccccc2)noc1-c1ccccc1)NO` [Example 4, 3-(3,5-Diphenylisoxazol-4-yl)propanehydroxamic acid]: the remaining activity at 10 µM on hADAM 10 was 75%; at hADAM 17, 75%; on hMMP 9 it was 89%; at hMMP 13, 79%; on hMMP 2 it was 98%. In addition, the remaining activity at 200 µM at hADAM 10 was 21%; at hADAM 17, 24%; at hMMP 9, 39%; on hMMP 13, 66%; at hMMP 2 it was 74%.
Take `O=C(Cn1c(-c2ccccc2)nnc1-c1ccccc1)NO` [Example 7, 2-(3,5-Diphenyl-1,2,4-triazol-4-yl)ethanehydroxamic acid]: the remaining activity at 10 µM on hADAM 10 came out at 89%; at hADAM 17 it was 90%; at hMMP 9 it was 99%; on hMMP 13 it was 93%; on hMMP 2, 95%. Also, the remaining activity at 200 µM on hADAM 10 came out at 83%; at hADAM 17 it was 56%; on hMMP 9, 54%; at hMMP 13, 76%; on hMMP 2, 70%.
`O=C(Cn1c(-c2ccccc2)ccc1-c1ccccc1)NO` [Example 9, 2-(2,5-Diphenylpyrrol-1-yl)ethanehydroxamic acid]: the remaining activity at 10 µM at hADAM 10 came out at 83%; on hADAM 17 it was 82%; on hMMP 9, 92%; at hMMP 13, 79%; on hMMP 2, 83%. Also, the remaining activity at 200 µM on hADAM 10 was determined as 29%; on hADAM 17, 25%; at hMMP 9, 1%; on hMMP 13, 5%; on hMMP 2, 1%.
For `O=C(Cn1c(-c2ccccc2)nc2ccccc21)NO` [Example 13, 2-(2-Phenylbenzimidazol-1-yl)ethanehydroxamic acid], the remaining activity at 10 µM on hADAM 10 turned out to be 87%; on hADAM 17, 92%; at hMMP 9 it was 96%; at hMMP 13, 102%; at hMMP 2, 89%. Also, the remaining activity at 200 µM on hADAM 10 came to 76%; at hADAM 17, 56%; on hMMP 9, 68%; on hMMP 13, 72%; at hMMP 2, 46%. The Ki on hMeprin β was determined as 1.13 µM. Also, at hMeprin β, the IC50 is 1.14 µM.
As to `O=C(Cn1c(-c2ccccc2)cc2ccccc21)NO` [Example 25, 2-(2-Phenylindol-1-yl)ethanehydroxamic acid], the remaining activity at 10 µM at hADAM 10 was determined as 89%; at hADAM 17, 88%; on hMMP 9, 90%; at hMMP 13 it was 77%; at hMMP 2, 85%. The remaining activity at 200 µM at hADAM 10 turned out to be 68%; at hADAM 17, 56%; on hMMP 9, 53%; on hMMP 13 it was 54%; on hMMP 2, 41%.
